Read-outs that look alike come from different tables or passages of the source. Where only a bound is given, the exact number is not on record here.

Drawing on patent US11981658B2, “Substituted aminopyridine compounds as EGFR inhibitors” (YUHAN CORPORATION, priority 2021, dated 2024), this text covers IC50 for six compounds.

In one test the target is EGFR L858R/C797S (Homo sapiens, UniProt P00533, C797S/L858R). In words: Biochemical EGFR kinase inhibition assay (Lance Ultra TR-FRET), double mutant L858R/C797S. Summed up:
(§1)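 Enzyme reactions lasted 1 hour at room temperature with test compounds between 0.003 and 10 μM, followed by 10 mM EDTA quench.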
On the technique in general: In TR-FRET formats the signal depends on donor and acceptor labels being close together.

In a further test the target is EGFR L858R/T790M/C797S (Homo sapiens, UniProt P00533, C797S/L858R/T790M). In words: Biochemical EGFR kinase inhibition assay (Lance Ultra TR-FRET), triple mutant L858R/T790M/C797S. Summed up:
as §1

Another test deals with EGFR Del19/C797S (Homo sapiens, UniProt P00533, C797S/DEL746-750). In words: Biochemical EGFR kinase inhibition assay (Lance Ultra TR-FRET), double mutant del19/C797S. Summed up: as §1
Chain of EGFR Del19/C797S (P00533 with tags, fused parts or gaps DEL746-750/C797S): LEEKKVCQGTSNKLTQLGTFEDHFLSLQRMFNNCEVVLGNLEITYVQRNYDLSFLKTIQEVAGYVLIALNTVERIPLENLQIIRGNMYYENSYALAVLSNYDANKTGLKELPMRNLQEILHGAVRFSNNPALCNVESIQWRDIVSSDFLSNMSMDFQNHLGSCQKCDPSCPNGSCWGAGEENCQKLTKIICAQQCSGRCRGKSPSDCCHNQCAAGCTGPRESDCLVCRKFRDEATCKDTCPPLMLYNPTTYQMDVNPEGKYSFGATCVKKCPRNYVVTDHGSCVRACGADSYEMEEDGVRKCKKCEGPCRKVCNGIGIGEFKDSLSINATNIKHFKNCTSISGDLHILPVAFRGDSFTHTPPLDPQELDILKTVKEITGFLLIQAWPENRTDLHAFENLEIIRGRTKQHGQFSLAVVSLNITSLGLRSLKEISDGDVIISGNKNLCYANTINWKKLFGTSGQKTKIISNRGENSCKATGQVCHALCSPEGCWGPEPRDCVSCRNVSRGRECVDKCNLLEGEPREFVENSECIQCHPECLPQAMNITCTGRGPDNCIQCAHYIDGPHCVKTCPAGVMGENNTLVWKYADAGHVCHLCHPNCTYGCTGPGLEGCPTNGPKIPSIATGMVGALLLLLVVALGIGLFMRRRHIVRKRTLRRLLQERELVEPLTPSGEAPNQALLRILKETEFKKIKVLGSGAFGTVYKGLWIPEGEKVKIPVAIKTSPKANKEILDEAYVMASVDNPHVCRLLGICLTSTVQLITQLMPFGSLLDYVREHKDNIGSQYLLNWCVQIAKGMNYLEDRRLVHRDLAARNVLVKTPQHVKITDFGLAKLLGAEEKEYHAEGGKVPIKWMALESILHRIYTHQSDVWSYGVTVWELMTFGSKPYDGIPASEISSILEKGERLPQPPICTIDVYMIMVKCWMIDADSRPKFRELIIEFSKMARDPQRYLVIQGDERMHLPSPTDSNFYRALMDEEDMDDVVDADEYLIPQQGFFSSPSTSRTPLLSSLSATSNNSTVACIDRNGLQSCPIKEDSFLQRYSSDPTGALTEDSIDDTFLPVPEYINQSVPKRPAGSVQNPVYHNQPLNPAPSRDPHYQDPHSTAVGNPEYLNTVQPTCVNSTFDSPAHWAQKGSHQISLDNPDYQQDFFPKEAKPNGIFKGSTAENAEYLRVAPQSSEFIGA
The next test deals with EGFR Del19/T790M/C797S (Homo sapiens, UniProt P00533, C797S/DEL746-750/T790M). In words: Biochemical EGFR kinase inhibition assay (Lance Ultra TR-FRET), triple mutant del19/T790M/C797S. An outline of the steps:
as §1

Another test concerns the target EGFR wildtype (WT) (Homo sapiens, UniProt P00533). In words: Biochemical EGFR kinase inhibition assay (Lance Ultra TR-FRET), wildtype. An outline of the steps: as §1
Where [1] appears, read: IC50 L858R/C797S (nM), 100 μM ATP.
The mark [2] stands for this setting: IC50 L858R/T790M/C797S (nM), 100 μM ATP.
The mark [3] stands for this setting: IC50 Del19/C797S (nM), 100 μM ATP.
[4] abbreviates: IC50 Del19/T790M/C797S (nM), 100 μM ATP.
[5] abbreviates: Km ATP, read-out: IC50 L858R/C797S (nM) Km ATP.
[6] abbreviates: Km ATP, read-out: IC50 L858R/T790M/C797S (nM) Km ATP.
Where [7] appears, read: Km ATP, read-out: IC50 Del19/C797S (nM) Km ATP.
The mark [8] stands for this setting: Km ATP, read-out: IC50 Del19/T790M/C797S (nM) Km ATP.
The mark [9] stands for this setting: Km ATP, read-out: IC50 WT (nM) Km ATP.

Chain of EGFR Del19/T790M/C797S (P00533 with tags, fused parts or gaps DEL746-750/T790M/C797S): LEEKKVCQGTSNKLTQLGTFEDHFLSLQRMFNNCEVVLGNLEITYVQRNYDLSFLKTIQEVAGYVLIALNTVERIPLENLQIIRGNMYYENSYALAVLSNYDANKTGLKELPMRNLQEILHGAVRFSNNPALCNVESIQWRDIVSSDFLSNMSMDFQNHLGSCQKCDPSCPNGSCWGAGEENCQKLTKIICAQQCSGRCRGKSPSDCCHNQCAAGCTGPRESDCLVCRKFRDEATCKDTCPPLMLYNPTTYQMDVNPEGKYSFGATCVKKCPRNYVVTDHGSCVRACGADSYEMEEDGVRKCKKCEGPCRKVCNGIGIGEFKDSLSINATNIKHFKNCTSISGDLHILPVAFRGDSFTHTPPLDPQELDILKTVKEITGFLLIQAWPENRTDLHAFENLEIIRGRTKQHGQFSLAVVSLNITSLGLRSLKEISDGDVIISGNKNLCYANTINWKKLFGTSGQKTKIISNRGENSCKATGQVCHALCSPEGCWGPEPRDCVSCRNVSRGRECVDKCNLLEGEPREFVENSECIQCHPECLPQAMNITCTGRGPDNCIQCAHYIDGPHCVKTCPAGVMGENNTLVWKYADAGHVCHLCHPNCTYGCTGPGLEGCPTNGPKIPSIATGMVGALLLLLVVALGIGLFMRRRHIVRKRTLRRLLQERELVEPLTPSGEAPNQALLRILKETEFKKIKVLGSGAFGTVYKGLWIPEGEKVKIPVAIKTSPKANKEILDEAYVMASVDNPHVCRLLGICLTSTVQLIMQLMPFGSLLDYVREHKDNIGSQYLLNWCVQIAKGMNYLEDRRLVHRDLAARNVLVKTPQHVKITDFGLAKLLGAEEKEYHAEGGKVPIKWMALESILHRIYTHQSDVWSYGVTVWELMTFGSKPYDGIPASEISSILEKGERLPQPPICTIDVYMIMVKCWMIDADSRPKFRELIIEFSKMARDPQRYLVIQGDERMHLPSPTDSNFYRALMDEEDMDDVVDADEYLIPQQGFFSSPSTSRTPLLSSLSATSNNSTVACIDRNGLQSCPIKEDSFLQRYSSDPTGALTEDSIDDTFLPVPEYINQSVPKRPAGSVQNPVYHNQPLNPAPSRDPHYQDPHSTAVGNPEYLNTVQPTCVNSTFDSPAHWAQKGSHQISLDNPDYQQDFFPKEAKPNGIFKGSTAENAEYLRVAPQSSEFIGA
Chain of EGFR wildtype (WT) (P00533 25-1210): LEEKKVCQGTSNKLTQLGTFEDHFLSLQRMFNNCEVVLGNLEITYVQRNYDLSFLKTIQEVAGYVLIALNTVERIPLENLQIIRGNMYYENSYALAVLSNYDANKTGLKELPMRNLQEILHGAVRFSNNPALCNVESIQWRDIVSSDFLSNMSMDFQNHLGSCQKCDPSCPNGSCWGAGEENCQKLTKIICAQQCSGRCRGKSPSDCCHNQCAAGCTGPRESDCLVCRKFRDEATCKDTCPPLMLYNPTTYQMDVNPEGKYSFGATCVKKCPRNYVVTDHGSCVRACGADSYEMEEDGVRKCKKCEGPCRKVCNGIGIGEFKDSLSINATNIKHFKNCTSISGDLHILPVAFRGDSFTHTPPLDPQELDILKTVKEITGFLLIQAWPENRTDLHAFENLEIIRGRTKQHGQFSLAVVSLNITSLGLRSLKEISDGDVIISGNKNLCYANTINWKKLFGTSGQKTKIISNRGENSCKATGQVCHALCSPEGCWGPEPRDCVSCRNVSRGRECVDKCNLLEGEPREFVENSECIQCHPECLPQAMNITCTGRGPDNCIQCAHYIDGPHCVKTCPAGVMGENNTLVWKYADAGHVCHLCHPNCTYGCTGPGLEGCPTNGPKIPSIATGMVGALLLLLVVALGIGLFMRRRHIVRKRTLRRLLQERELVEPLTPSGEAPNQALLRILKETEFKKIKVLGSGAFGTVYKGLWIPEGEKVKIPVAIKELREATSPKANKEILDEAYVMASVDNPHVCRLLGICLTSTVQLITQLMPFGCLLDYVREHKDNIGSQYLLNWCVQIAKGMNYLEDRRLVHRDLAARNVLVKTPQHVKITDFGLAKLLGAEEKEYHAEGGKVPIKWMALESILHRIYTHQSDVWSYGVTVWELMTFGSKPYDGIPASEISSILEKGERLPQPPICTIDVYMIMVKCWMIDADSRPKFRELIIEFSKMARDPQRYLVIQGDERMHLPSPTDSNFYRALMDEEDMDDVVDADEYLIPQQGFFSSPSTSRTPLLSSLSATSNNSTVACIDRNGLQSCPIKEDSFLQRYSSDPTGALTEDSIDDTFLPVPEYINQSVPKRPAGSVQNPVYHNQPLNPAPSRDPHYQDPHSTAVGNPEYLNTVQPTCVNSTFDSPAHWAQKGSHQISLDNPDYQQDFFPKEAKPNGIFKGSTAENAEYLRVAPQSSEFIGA
Chain of EGFR L858R/T790M/C797S (P00533 25-1210 T790M/C797S/L858R): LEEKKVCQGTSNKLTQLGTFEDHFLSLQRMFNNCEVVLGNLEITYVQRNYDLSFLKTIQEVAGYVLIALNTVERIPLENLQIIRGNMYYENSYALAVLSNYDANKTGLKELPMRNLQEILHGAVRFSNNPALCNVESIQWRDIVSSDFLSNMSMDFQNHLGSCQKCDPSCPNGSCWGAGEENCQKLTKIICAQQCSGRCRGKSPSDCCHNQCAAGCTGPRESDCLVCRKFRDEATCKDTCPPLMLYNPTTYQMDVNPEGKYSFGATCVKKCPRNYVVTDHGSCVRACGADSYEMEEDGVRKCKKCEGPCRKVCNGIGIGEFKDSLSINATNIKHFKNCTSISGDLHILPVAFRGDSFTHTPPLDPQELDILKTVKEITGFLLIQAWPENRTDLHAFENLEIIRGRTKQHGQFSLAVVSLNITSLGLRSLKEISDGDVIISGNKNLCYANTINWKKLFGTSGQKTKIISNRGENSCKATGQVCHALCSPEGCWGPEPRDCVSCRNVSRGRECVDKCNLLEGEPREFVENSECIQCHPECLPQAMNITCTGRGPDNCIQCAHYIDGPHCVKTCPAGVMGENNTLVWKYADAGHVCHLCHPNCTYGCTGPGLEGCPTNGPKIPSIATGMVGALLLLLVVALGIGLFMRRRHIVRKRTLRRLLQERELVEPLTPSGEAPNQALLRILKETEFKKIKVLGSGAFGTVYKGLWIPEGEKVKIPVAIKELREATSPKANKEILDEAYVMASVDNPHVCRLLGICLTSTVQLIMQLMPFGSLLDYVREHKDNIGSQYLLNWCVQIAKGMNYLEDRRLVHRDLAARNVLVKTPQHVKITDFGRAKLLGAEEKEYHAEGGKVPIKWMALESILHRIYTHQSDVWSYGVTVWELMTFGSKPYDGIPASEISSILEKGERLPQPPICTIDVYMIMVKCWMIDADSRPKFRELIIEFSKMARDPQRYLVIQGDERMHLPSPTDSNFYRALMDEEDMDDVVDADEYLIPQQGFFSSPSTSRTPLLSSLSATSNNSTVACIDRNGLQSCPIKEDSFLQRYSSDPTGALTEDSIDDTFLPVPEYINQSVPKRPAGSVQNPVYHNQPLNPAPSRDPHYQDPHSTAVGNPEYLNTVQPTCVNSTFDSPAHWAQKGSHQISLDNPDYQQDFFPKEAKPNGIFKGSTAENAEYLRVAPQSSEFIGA

Regarding `CC1(C#Cc2cnc(Nc3ccnc(-c4cnn(S(=O)(=O)C5CC5)c4)n3)cc2NC[C@H]2CC[C@H](CO)CC2)CC1` [Example 405, ((1r,4r)-4-(((2-((2-(1-(Cyclopropylsulfonyl)-1H-pyrazol-4-yl)pyrimidin-4-yl)amino)-5-((1-methylcyclopropyl)ethynyl)pyridin-4-yl)amino)methyl)cyclohexyl)methanol], the IC50 on EGFR L858R/C797S (setting [1]) was 3900 nM; against EGFR L858R/T790M/C797S (setting [2]) it was 94.2 nM; against EGFR Del19/C797S (setting [3]), 249 nM; at EGFR Del19/T790M/C797S (setting [4]), 46.5 nM; against EGFR wildtype (WT) (IC50 WT (nM), 100 μM ATP) it was above 10000 nM.
For `C[C@H](Nc1cc(Nc2ccnc(-c3cnn(S(=O)(=O)C4CC4)c3)n2)ncc1C#Cc1cnn(C)c1)C(C)(C)O` [Example 5, (S)-3-((2-((2-(1-(Cyclopropylsulfonyl)-1H-pyrazol-4-yl)pyrimidin-4-yl)amino)-5-((1-methyl-1H-pyrazol-4-yl)ethynyl)pyridin-4-yl)amino)-2-methylbutan-2-ol], the IC50 at EGFR L858R/C797S (setting [1]) is 418 nM; on EGFR L858R/T790M/C797S (setting [2]) it was 44.3 nM; against EGFR Del19/C797S (setting [3]), 404 nM; on EGFR Del19/T790M/C797S (setting [4]), 3.8 nM; against EGFR wildtype (WT) (IC50 WT (nM), 100 μM ATP), above 10000 nM.
Consider `Cn1cc(C#Cc2cnc(Nc3ccnc(-c4cnn(S(=O)(=O)C5CC5)c4)n3)cc2N2CCC(NCC(F)(F)F)CC2)cn1` [Example 135, 2-(1-(Cyclopropylsulfonyl)-1H-pyrazol-4-yl)-N-(5-((1-methyl-1H-pyrazol-4-yl)ethynyl)-4-(4-((2,2,2-trifluoroethyl)amino)piperidin-1-yl)pyridin-2-yl)pyrimidin-4-amine], for which the IC50 at EGFR L858R/C797S (setting [1]) came out at 40.6 nM; at EGFR L858R/C797S (setting [5]), 4.1 nM; at EGFR L858R/T790M/C797S (setting [2]), 5.2 nM; at EGFR L858R/T790M/C797S (setting [6]), 0.6 nM; against EGFR Del19/C797S (setting [3]) it was 3 nM; on EGFR Del19/C797S (setting [7]) it was 1.6 nM. Further, the IC50 was 2.6 nM on EGFR Del19/T790M/C797S (setting [4]); 0.7 nM on EGFR Del19/T790M/C797S (setting [8]); above 10000 nM against EGFR wildtype (WT) (IC50 WT (nM), 100 μM ATP); 28.7 nM at EGFR wildtype (WT) (setting [9]).
With `O=S(=O)(C1CC1)n1cc(-c2nccc(Nc3cc(N4CCC(F)(CO)CC4)c(C#Cc4cnn(C5CCOCC5)c4)cn3)n2)cn1` [Example 96, (1-(2-((2-(1-(Cyclopropylsulfonyl)-1H-pyrazol-4-yl)pyrimidin-4-yl)amino)-5-((1-(tetrahydro-2H-pyran-4-yl)-1H-pyrazol-4-yl)ethynyl)pyridin-4-yl)-4-fluoropiperidin-4-yl)methanol], the IC50 on EGFR L858R/C797S (setting [1]) was determined as 8.1 nM; at EGFR L858R/C797S (setting [5]), 1.5 nM; at EGFR L858R/T790M/C797S (setting [2]), 2.1 nM; on EGFR L858R/T790M/C797S (setting [6]), 0.6 nM; on EGFR Del19/C797S (setting [3]), 3.1 nM; on EGFR Del19/C797S (setting [7]) it was 3 nM. Further, the IC50 is 1 nM against EGFR Del19/T790M/C797S (setting [4]); 1 nM at EGFR Del19/T790M/C797S (setting [8]); above 10000 nM against EGFR wildtype (WT) (IC50 WT (nM), 100 μM ATP); 12.8 nM at EGFR wildtype (WT) (setting [9]).
In the case of `CC1(C#Cc2cnc(Nc3ccnc(-c4cnn(S(=O)(=O)C5CC5)c4)n3)cc2N[C@H]2CC[C@@H](CO)CC2)CC1` [Example 402, ((1s,4s)-4-((2-((2-(1-(Cyclopropylsulfonyl)-1H-pyrazol-4-yl)pyrimidin-4-yl)amino)-5-((1-methylcyclopropyl)ethynyl)pyridin-4-yl)amino)cyclohexyl)methanol], the IC50 against EGFR L858R/C797S (setting [1]) is 104 nM; at EGFR L858R/C797S (Km ATP, read-out: IC50 L858R/C797S (nM), Km ATP), 3.9 nM; against EGFR L858R/T790M/C797S (setting [2]), 3.9 nM; against EGFR Del19/C797S (setting [3]), 8.4 nM; on EGFR Del19/C797S (Km ATP, read-out: IC50 Del19/C797S (nM), Km ATP), 7.9 nM; at EGFR Del19/T790M/C797S (setting [4]) it was 2.6 nM. In addition, the IC50 against EGFR wildtype (WT) (IC50 WT (nM), 100 μM ATP) is above 10000 nM; at EGFR wildtype (WT) (Km ATP, read-out: IC50 WT (nM), Km ATP), 62.7 nM.
In the case of `CN(C)C[C@@H]1CCCN(c2cc(Nc3ccnc(-c4cnn(S(=O)(=O)C5CC5)c4)n3)ncc2C#Cc2cnn(CCF)c2)C1` [Example 385, (S)-2-(1-(Cyclopropylsulfonyl)-1H-pyrazol-4-yl)-N-(4-(3-((dimethylamino)methyl)piperidin-1-yl)-5-((1-(2-fluoroethyl)-1H-pyrazol-4-yl)ethynyl)pyridin-2-yl)pyrimidin-4-amine], the IC50 against EGFR L858R/C797S (setting [1]) is 37.6 nM; at EGFR L858R/T790M/C797S (setting [2]) it was 2.1 nM; against EGFR Del19/C797S (setting [3]) it was 11.2 nM; against EGFR Del19/T790M/C797S (setting [4]), 0.7 nM; at EGFR wildtype (WT) (IC50 WT (nM), 100 μM ATP), above 10000 nM.
